Assay results taken from ChEMBL document CHEMBL5543174, “A Nonbactericidal Anionic Antimicrobial Peptide Provides Prophylactic and Therapeutic Efficacies against Bacterial Infections in Mice by Immunomodulatory-Antithrombotic Duality” (J Med Chem, 2024).
Calls of active or inactive are those of the source. No cut-off for these calls is given here.

Legend:
Neutrophil [1] = assay: Induction of phagocytosis in mouse bone marrow derived neutrophil cultured with CFSE-labeled Carbapenem-resistant Escherichia coli incubated for 1.5 hrs followed by bacterial exposure for 1 hr by flow cytometry; format: functional, cell-based; conditions: time 2.5 hrs
Mus musculus [2] = assay: Inhibition of fibrin formation in mouse infected with Methicillin-resistant Staphylococcus aureus assessed as reduction in fibrin deposition in lung at 10 mg/kg,ip administrated 5 hrs after bacterial infection measured after 24 hrs by immunohistochemical analysis; format: functional, organism-based; conditions: time 19.0 hrs
Peritoneal macrophage [3] = assay: Induction of chemotaxis in mouse Peritoneal macrophage assessed as upregulation of MCP-1 production at 100 ug/ml preincubated with KN-62 followed by compound addition by ELISA; format: functional, cell-based; conditions: dose 100.0 µg/ml
Escherichia coli [4] = assay: Antibacterial activity against Escherichia coli ATCC 25922 infected in C57BL/6 mouse assessed as reduction in IL-6 level in serum at 10 mg/kg,ip pre-administrated 5 hrs before bacterial infection measured after 24 hrs by ELISA; format: functional, organism-based; conditions: time 29.0 hrs
Escherichia coli [5] = assay: Antibacterial activity against Escherichia coli ATCC 25922 infected in C57BL/6 mouse assessed as reduction in IL-6 level in peritoneal fluid at 10 mg/kg,ip administrated 5 hrs after bacterial infection measured after 24 hrs by ELISA; format: functional, organism-based; conditions: time 19.0 hrs
Staphylococcus aureus [6] = assay: Antibacterial activity against Methicillin-resistant Staphylococcus aureus infected in C57BL/6 mouse assessed as reduction in IL-6 level in serum at 10 mg/kg,ip pre-administrated 5 hrs before bacterial infection measured after 24 hrs by ELISA; format: functional, organism-based; conditions: time 29.0 hrs
Mus musculus [7] = assay: Anticoagulation activity in mouse infected with Carbapenem-resistant Escherichia coli assessed as increase in plasma AT-III expression at 10 mg/kg,ip pre-administrated 5 hrs before bacterial infection measured after 24 hrs by ELISA; format: functional, organism-based; conditions: time 29.0 hrs
[8] = tested on: Peritoneal macrophage cell; assay: Induction of chemotaxis in mouse Peritoneal macrophage assessed as upregulation of IL-1beta expression at 25 to 100 ug/ml incubated for 6 hrs by ELISA; format: functional, cell-based; conditions: dose 25-100 µg/ml
Mus musculus [9] = assay: Anticoagulation activity in mouse infected with Methicillin-resistant Staphylococcus aureus assessed as increase in plasma APC expression at 10 mg/kg,ip administrated 5 hrs after bacterial infection measured after 24 hrs by ELISA; format: functional, organism-based; conditions: time 19.0 hrs
Staphylococcus aureus [10] = assay: Antibacterial activity against Staphylococcus aureus ATCC 25923 infected in C57BL/6 mouse assessed as reduction in TNF-alpha level in serum at 10 mg/kg,ip administrated 5 hrs after bacterial infection measured after 24 hrs by ELISA; format: functional, organism-based; conditions: time 19.0 hrs
Escherichia coli [11] = assay: Antibacterial activity against Escherichia coli ATCC 25922 infected in C57BL/6 mouse assessed as reduction in TNF-alpha level in peritoneal fluid at 10 mg/kg,ip pre-administrated 5 hrs before bacterial infection measured after 24 hrs by ELISA; format: functional, organism-based; conditions: time 29.0 hrs
Escherichia coli [12] = assay: Antibacterial activity against Carbapenem-resistant Escherichia coli infected in C57BL/6 mouse with cyclophosphamide-induced neutrophil depletion model assessed as decrease in bacterial burden in peritoneal cavity at 10 mg/kg,ip pre-administrated 5 hrs before bacterial infection measured after 24 hrs; format: functional, organism-based; conditions: time 29.0 hrs
Lymphocyte = assay: Immunomodulatory activity in mouse mesenteric lymph node derived lymphocyte assessed as increase in lymphocyte proliferation at < 200 ug/ml incubated for 24 hrs by CCK-8 assay; format: functional, cell-based; conditions: dose < 200.0 µg/ml
Staphylococcus aureus [13] = assay: Antibacterial activity against Staphylococcus aureus ATCC 25923 infected in C57BL/6 mouse assessed as reduction in TNF-alpha level in peritoneal fluid at 10 mg/kg,ip administrated 5 hrs after bacterial infection measured after 24 hrs by ELISA; format: functional, organism-based; conditions: time 19.0 hrs
Peritoneal macrophage [14] = assay: Induction of phagocytosis in mouse Peritoneal macrophage assessed as increase in neutral red dye uptake by measuring optical density absorbance at 25 ug/ml incubated for 24 hrs followed by dye addition measured after 4 hrs by absorbance based assay (reference value: 0.089); format: functional; conditions: dose 25 µg/ml; time 28 hrs
Mus musculus [15] = assay: Anticoagulation activity in mouse infected with Methicillin-resistant Staphylococcus aureus assessed as increase in plasma AT-III expression at 10 mg/kg,ip administrated 5 hrs after bacterial infection measured after 24 hrs by ELISA; format: functional, organism-based; conditions: time 19.0 hrs
Staphylococcus aureus [16] = assay: Antibacterial activity against Staphylococcus aureus ATCC 25923 infected in C57BL/6 mouse assessed as reduction in IL-6 level in serum at 10 mg/kg,ip administrated 5 hrs after bacterial infection measured after 24 hrs by ELISA; format: functional, organism-based; conditions: time 19.0 hrs
Candida albicans = assay: Antimicrobial activity against Candida albicans ATCC 2002 assessed as inhibition of microbial growth at <= 200 ug/ml incubated for 18 hrs by micro-broth dilution method; format: functional, organism-based; conditions: dose <= 200.0 µg/ml
Escherichia coli [17] = assay: Antimicrobial activity against Escherichia coli ATCC 25922 assessed as inhibition of microbial growth at <= 200 ug/ml incubated for 18 hrs by micro-broth dilution method; format: functional, organism-based; conditions: dose <= 200.0 µg/ml
Staphylococcus aureus [18] = assay: Antimicrobial activity against Methicillin-resistant Staphylococcus aureus assessed as inhibition of microbial growth at <= 200 ug/ml incubated for 18 hrs by micro-broth dilution method; format: functional, organism-based; conditions: dose <= 200.0 µg/ml
[19] = tested on: Peritoneal macrophage cell; assay: Induction of chemotaxis in mouse Peritoneal macrophage assessed as increase in macrophage migration at 100 ug/ml preincubated with WRW4 for 30 mins followed by compound addition measured after 8 hrs by crystal violet staining based indirect transwell assay; format: functional, cell-based; conditions: dose 100.0 µg/ml
Mus musculus [20] = assay: Anticoagulation activity in mouse infected with Methicillin-resistant Staphylococcus aureus assessed as increase in plasma TFPI expression at 10 mg/kg,ip pre-administrated 5 hrs before bacterial infection measured after 24 hrs by ELISA; format: functional, organism-based; conditions: time 29.0 hrs
Neutrophil [21] = assay: Induction of degranulation in mouse bone marrow derived neutrophil assessed as increase in BD-2 release at 25 to 100 ug/ml incubated for 6 hrs by ELISA; format: functional, cell-based; conditions: dose 25-100 µg/ml
Staphylococcus aureus [22] = assay: Antimicrobial activity against Staphylococcus aureus ATCC 25923 assessed as inhibition of microbial growth at <= 200 ug/ml incubated for 18 hrs by micro-broth dilution method; format: functional, organism-based; conditions: dose <= 200.0 µg/ml
Mus musculus [23] = assay: Inhibition of fibrin formation in mouse infected with Methicillin-resistant Staphylococcus aureus assessed as reduction in fibrin deposition in lung at 10 mg/kg,ip pre-administrated 5 hrs before bacterial infection measured after 24 hrs by immunohistochemical analysis; format: functional, organism-based; conditions: time 29.0 hrs
Escherichia coli [24] = assay: Antibacterial activity against Escherichia coli ATCC 25922 infected in C57BL/6 mouse assessed as reduction in TNF-alpha level in serum at 10 mg/kg,ip administrated 5 hrs after bacterial infection measured after 24 hrs by ELISA; format: functional, organism-based; conditions: time 19.0 hrs
Escherichia coli [25] = assay: Antibacterial activity against Escherichia coli ATCC 25922 infected in C57BL/6 mouse assessed as reduction in IL-1beta level in peritoneal fluid at 10 mg/kg,ip pre-administrated 5 hrs before bacterial infection measured after 24 hrs by ELISA; format: functional, organism-based; conditions: time 29.0 hrs
Neutrophil [26] = assay: Induction of phagocytosis in mouse bone marrow derived neutrophil cultured with CFSE-labeled Methicillin-resistant Staphylococcus aureus incubated for 1.5 hrs followed by bacterial exposure for 1 hr by flow cytometry; format: functional, cell-based; conditions: time 2.5 hrs
Escherichia coli [27] = assay: Antibacterial activity against Escherichia coli ATCC 25922 infected in C57BL/6 mouse assessed as reduction in IL-6 level in peritoneal fluid at 10 mg/kg,ip pre-administrated 5 hrs before bacterial infection measured after 24 hrs by ELISA; format: functional, organism-based; conditions: time 29.0 hrs
Staphylococcus aureus [28] = assay: Antimicrobial activity against Staphylococcus aureus ATCC 25923 assessed as reduction in microbial colony forming unit at 200 ug/ml incubated for 1 to 4 hrs by time-kill kinetics based analysis; format: functional, organism-based; conditions: dose 200.0 µg/ml, time 1-4 hrs

CC[C@H](C)[C@H](NC(=O)[C@@H]1CSSC[C@H](NC(=O)[C@H](CCC(=O)O)NC(=O)[C@@H](NC(=O)[C@H](CCCCN)NC(=O)[C@H](Cc2c[nH]cn2)NC(=O)[C@@H](NC(=O)[C@H](CCCCN)NC(=O)[C@H](CCC(=O)O)NC(=O)[C@H](C)NC(=O)[C@H](CCC(=O)O)NC(=O)[C@H](CCC(=O)O)NC(=O)[C@H](CCC(=O)O)NC(=O)[C@H](C)N)[C@@H](C)O)[C@@H](C)O)C(=O)N[C@@H](CC(C)C)C(=O)N[C@@H](CCC(=O)O)C(=O)N1)C(=O)N[C@@H](Cc1ccccc1)C(=O)N[C@H](C(=O)N[C@@H](CC(C)C)C(=O)N[C@@H](CC(C)C)C(=O)N1CCC[C@H]1C(=O)N1CCC[C@@H]1C(=O)N[C@H](C)C(=O)O)[C@@H](C)O
Activity (Neutrophil [1]): Dose-Dependent Effect
inhibition (Mus musculus [2]): Active
Activity (Peritoneal macrophage [3]): Active
Activity (Escherichia coli [4]): Active
Activity (Escherichia coli [5]): Active
Activity (Staphylococcus aureus [6]): Active
Activity (Mus musculus [7]): Active
Activity [8]: inactive
Activity (Mus musculus [9]): Active
Activity (Staphylococcus aureus [10]): Active
Activity (Escherichia coli [11]): Active
Activity (Escherichia coli [12]): inactive
Activity (Lymphocyte): inactive
Activity (Staphylococcus aureus [13]): Active
OD (Peritoneal macrophage [14]): 0.097
Activity (Mus musculus [15]): Active
Activity (Staphylococcus aureus [16]): Active
Activity (Candida albicans): inactive
Activity (Escherichia coli [17]): inactive
Activity (Staphylococcus aureus [18]): inactive
Activity [19]: Active
Activity (Mus musculus [20]): Active
Activity (Neutrophil [21]): inactive
Activity (Staphylococcus aureus [22]): inactive
inhibition (Mus musculus [23]): Active
Activity (Escherichia coli [24]): Active
Activity (Escherichia coli [25]): Active
Activity (Neutrophil [26]): Dose-Dependent Effect
Activity (Escherichia coli [27]): Active
Activity (Staphylococcus aureus [28]): inactive
